The record followed here is ChEMBL document CHEMBL1817621, “SAR studies of acidic dual γ-secretase/PPARγ modulators” (Bioorg Med Chem, 2011).

The source made the active and inactive calls. The rule behind the calls is not given here.

Series [1] concerns the target T1, Peroxisome proliferator-activated receptor delta (Homo sapiens) (UniProt Q03181).
T1 sequence (whole entry): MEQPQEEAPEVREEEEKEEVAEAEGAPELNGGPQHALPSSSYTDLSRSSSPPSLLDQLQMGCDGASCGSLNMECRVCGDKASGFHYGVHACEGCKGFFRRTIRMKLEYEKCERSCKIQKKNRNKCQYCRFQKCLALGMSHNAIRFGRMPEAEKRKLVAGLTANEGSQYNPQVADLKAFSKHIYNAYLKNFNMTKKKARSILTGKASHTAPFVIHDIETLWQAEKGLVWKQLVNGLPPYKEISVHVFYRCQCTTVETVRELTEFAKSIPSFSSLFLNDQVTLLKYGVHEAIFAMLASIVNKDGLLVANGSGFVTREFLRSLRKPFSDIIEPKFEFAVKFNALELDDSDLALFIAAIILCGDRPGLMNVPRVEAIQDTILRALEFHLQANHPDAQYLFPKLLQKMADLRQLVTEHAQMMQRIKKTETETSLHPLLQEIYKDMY
Nature of the series: Modulation of human PPARdelta-LBD expressed in african green monkey COS7 cells co-transfected with Gal4 assessed as activation of transactivation activity at 10 uM by luciferase assay. The settings on record: COS-7. Format: cell-based.

In series [2] the test system is CHO. Nature of the series: Cytotoxicity against CHO cells expressing human APP and wild type human presenilin-1 assessed as reduction of cell viability up to 40 uM after 24 hrs by Alamar blue assay. Format: cell-based, Cricetulus griseus. The settings on record: chinese hamster.
Series [3] has as its target T2, Peroxisome proliferator-activated receptor alpha (Homo sapiens) (UniProt Q07869).
T2 sequence (whole entry): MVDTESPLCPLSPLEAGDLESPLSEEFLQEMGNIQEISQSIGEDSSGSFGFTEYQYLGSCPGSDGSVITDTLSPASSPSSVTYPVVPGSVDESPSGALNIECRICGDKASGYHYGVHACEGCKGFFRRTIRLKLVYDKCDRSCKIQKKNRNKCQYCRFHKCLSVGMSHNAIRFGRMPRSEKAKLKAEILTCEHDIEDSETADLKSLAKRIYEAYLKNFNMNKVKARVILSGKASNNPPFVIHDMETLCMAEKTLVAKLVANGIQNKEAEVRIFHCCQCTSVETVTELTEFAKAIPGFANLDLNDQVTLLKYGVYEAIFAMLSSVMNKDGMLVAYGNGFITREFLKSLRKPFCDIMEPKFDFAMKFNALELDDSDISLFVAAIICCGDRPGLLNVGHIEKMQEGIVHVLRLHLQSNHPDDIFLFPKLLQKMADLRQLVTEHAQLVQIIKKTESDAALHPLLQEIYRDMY
Briefly: Modulation of human PPARalpha-LBD expressed in african green monkey COS7 cells co-transfected with Gal4 assessed as activation of transactivation activity at 10 uM by luciferase assay. Format: cell-based. The settings on record: COS-7.

Series [4] concerns the target T3, Prostaglandin G/H synthase 1 (Ovis aries) (UniProt P05979).
T3 sequence (whole entry): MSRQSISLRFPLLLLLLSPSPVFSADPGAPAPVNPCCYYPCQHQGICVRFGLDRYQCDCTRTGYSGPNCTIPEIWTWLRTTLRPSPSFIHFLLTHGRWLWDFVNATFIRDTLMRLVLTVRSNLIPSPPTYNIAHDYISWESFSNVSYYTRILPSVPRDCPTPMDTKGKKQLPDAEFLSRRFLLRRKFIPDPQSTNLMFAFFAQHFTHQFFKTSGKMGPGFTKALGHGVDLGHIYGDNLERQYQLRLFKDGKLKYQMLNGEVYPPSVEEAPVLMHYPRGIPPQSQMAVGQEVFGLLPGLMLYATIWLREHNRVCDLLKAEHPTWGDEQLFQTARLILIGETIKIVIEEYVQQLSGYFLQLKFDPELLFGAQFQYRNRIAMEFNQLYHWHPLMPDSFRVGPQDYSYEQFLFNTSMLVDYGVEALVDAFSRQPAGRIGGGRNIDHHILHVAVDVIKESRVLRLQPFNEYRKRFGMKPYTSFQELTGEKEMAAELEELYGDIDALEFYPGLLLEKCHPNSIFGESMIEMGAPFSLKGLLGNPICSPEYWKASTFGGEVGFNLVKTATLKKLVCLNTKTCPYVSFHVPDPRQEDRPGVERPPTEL
Nature of the series: Inhibition of ovine COX-1 assessed as residual activity by measuring formation of 12-HHT from arachidonic acid at 10 uM by HPLC analysis.

Series [5] can be described thus: Modulation of gamma-secretase expressed in CHO cells co-expressing human APP and wild type human presenilin-1 assessed as inhibition of amyloid beta42 production by ELISA. Type of series: cell-based.
A short description of series [6]: Modulation of gamma-secretase expressed in CHO cells co-expressing human APP and wild type human presenilin-1 assessed as increase of amyloid beta38 production by ELISA. Format: cell-based.
In series [7] the target is T4, Prostaglandin G/H synthase 2 (Homo sapiens) (UniProt P35354).
T4 sequence (whole entry): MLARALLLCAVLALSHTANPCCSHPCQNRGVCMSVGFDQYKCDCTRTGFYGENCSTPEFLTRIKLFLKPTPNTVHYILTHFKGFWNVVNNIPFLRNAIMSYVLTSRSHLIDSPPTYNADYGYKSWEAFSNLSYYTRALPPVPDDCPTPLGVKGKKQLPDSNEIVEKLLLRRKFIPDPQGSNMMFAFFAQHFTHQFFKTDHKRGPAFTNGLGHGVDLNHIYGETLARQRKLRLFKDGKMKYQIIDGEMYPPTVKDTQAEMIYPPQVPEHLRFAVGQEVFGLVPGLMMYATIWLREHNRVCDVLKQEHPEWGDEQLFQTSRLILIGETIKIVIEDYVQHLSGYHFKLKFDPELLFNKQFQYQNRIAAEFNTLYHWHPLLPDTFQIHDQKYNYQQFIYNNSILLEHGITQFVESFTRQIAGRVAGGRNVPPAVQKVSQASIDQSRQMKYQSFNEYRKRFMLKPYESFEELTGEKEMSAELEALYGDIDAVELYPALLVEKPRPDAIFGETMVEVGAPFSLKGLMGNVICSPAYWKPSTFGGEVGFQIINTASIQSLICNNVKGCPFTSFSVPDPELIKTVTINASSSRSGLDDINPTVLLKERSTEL
Briefly: Inhibition of human recombinant COX-2 assessed as residual activity by measuring formation of 12-HHT from arachidonic acid at 10 uM by HPLC analysis.

In series [8] the target is T5, Peroxisome proliferator-activated receptor gamma (Homo sapiens) (UniProt P37231).
T5 sequence (whole entry): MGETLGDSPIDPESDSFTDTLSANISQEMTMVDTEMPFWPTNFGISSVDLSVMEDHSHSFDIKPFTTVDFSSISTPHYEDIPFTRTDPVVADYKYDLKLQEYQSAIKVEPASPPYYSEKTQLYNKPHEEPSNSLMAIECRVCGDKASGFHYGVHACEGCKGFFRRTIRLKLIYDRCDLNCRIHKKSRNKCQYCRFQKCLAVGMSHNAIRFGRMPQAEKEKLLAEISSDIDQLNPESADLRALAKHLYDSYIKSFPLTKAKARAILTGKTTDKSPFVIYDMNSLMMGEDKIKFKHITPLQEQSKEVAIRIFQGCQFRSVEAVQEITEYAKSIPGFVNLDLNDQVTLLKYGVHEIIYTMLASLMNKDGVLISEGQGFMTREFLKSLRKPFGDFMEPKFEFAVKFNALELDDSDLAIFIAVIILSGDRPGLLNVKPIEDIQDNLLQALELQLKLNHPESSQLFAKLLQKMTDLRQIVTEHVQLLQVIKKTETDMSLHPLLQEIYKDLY
Nature of the series: Modulation of human PPARgamma-LBD expressed in african green monkey COS7 cells co-transfected with Gal4 assessed as activation of transactivation activity at 10 uM by luciferase assay. Format: cell-based. The settings on record: COS-7.

The nature of series [9]: Modulation of gamma-secretase expressed in CHO cells co-expressing human APP and wild type human presenilin-1 assessed as reduction of amyloid beta38 production by ELISA. On the technique in general: ELISA stands for enzyme-linked immunosorbent assay.
Series [10] addresses T6, Prostaglandin G/H synthase 1 (Ovis aries, UniProt P05979).
T6 sequence (P05979 whole entry): T3 sequence (whole entry)
Description: Inhibition of ovine COX-1 assessed as residual activity by measuring formation of 12-HHT from arachidonic acid by HPLC analysis

In series [11] the target is T7, Peroxisome proliferator-activated receptor gamma (Homo sapiens, UniProt P37231).
T7 sequence (P37231 whole entry): T5 sequence (whole entry)
Nature of the series: Modulation of human PPARgamma-LBD expressed in african green monkey COS7 cells co-transfected with Gal4 assessed as activation of transactivation activity by luciferase assay. Type of series: cell-based, COS-7.

Series [12] is described as follows: Selectivity ratio of inhibition of gamma-secretase-mediated notch signaling to modulation of gamma-secretase.
Series [13] relates to CHO. Nature of the series: Inhibition of gamma-secretase-mediated notch signaling expressed in CHO cells transfected with Gal4-DNA-binding/VP16 transactivation domain assessed as reduction of reporter activity up to 30 uM by luciferase assay. Type of series: cell-based.
Series [14] has as its target T5, Peroxisome proliferator-activated receptor gamma (Homo sapiens). Briefly: Modulation of human PPARgamma-LBD expressed in african green monkey COS7 cells co-transfected with Gal4 assessed as activation of transactivation activity by luciferase assay relative to pioglitazone. Type of series: cell-based. The settings on record: COS-7.

In general, IC50 refers to the concentration at which inhibition is half-maximal. As usually defined, the EC50 is the concentration that produces a half-maximal response.

With `CCCC/C(=C\c1cc(OCc2ccc(C(F)(F)F)cc2)ccc1OCc1ccc(C(F)(F)F)cc1)C(=O)O`, the result in series [1] and in series [3] was inactive. In addition, the Activity result was “Non-toxic” with CHO [2], 82.6% in series [4], 102% in series [7] and 28% in series [8]. Moreover, the half-inhibitory concentration (IC50) in series [5] is 1200 nM. Besides, the EC50 in [6] is 1100 nM.

As for `CCCCC(Cc1ccc(OCCc2ccccc2)cc1OCCc1ccccc1)C(=O)O` (stereo not given), the result in [1], in [3] and in series [8] was inactive. Moreover, the Activity result in the series with CHO [2] is “Non-toxic”; in series [4] it was 99.1%; in [7], 110%. Also, the IC50 in [9] came out at 5000 nM.

In series [10], `CCCCC(Sc1nc(OCCc2ccccc2)cc(OCCc2ccccc2)n1)C(=O)O` (stereo not given) gave an IC50 of 16700 nM.

On to `CCCC/C(=C\c1cc(OCCC2CCCCC2)ccc1OCc1ccc(C(F)(F)F)cc1)C(=O)O`, for which the outcome in series [1] and in series [3] was inactive. Also, the Activity result with CHO [2] was “Non-toxic”; in series [4], 92.3%; in [7] it was 106%; in [8], 27%. In addition, in series [5], the half-inhibitory concentration (IC50) was 2700 nM. Moreover, the EC50 in series [6] is 2500 nM.

Consider `CCCC/C(=C\c1cc(OCCc2ccc(C(F)(F)F)cc2)ccc1OCCc1ccc(C(F)(F)F)cc1)C(=O)O`, for which the EC50 in series [11] was determined as 7200 nM; in [6], 1600 nM. The result in series [1] and in series [3] was inactive. For the same molecule, the values for the Activity result (in the series on CHO [2]; in [4]; in series [7]) were “Non-toxic”, 81% and 102%, respectively. In addition, the Ratio in series [12] turned out to be 8. Moreover, the IC50 in [5] amounted to 2400 nM. Also, the inhibition entry in the series on CHO [13] is “inactive”. Also, in [14], the Emax was 86%.

`CCCC/C(=C\c1cc(OCCC2CCCCC2)ccc1OCCC1CCCCC1)C(=O)O`: the result in series [1] and in series [3] was inactive. Besides, the Activity entry was “Non-toxic” in the series with CHO [2], 76.4% in [4], 123% in [7] and 75% in series [8]. Further, the Ratio in series [12] was determined as 8. In addition, the IC50 in series [5] is 3900 nM. The EC50 in series [6] is 3100 nM. Moreover, in the series with CHO [13], the inhibition result is “inactive”.
